Experimental data as given in patent publication US12384776B2, “Compounds and uses thereof” (Foghorn Therapeutics Inc., priority 2019, dated 2025).

The molecules below were run against Nanoluciferase-BRD9 fusion protein (3×FLAG-NLuc-BRD9) in SYO-1 cells (Homo sapiens (Human), UniProt Q9H8M2) (assay: SYO1 BRD9 NanoLuc degradation assay). Conditions: SYO-1 cells expressing 3×FLAG-NLuc-BRD9, 6 hours incubation, top dose 1 μM.
Type: cell-based
How it was run: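 Degradation read as loss of NLuc signal after 6 h compound exposure (1 μM top final, 3-fold steps, 10 points, duplicates) in SYO-1 cells stably carrying 3×FLAG-NLuc-BRD9. Signal normalised between DMSO-treated cells and cells given 1 μM of a known BRD9 degrader.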

Nanoluciferase-BRD9 fusion protein (3×FLAG-NLuc-BRD9) in SYO-1 cells, sequence (Q9H8M2 whole entry, the tested form may be a part): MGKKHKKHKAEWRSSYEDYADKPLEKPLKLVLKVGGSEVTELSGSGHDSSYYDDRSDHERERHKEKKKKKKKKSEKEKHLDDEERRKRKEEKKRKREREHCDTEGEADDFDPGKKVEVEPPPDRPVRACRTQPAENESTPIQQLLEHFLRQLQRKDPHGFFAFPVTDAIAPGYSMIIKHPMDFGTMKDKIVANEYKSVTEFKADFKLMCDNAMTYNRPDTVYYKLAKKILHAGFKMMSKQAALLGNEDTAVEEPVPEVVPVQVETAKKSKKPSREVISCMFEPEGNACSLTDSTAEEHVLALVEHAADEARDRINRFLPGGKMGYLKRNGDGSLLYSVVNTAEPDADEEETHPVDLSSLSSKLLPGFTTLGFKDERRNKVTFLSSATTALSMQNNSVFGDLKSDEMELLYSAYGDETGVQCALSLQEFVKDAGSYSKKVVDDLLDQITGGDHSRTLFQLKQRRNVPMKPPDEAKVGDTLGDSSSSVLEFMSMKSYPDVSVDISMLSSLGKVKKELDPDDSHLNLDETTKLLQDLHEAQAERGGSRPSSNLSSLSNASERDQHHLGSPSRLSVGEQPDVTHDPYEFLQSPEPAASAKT

IC50 | Structure (SMILES)
0.01 to 0.1 µM | COc1cc(-c2cn(C)c(=O)c3c2CCN(C(=O)NCC2CC4(CCN(CCCCN5CCN(c6ccc7c(c6)C(=O)N(C6CCC(=O)NC6=O)C7=O)CC5)CC4)C2)C3)cc(OC)c1CN(C)C (stereo not drawn) [Compound D218]
0.01 to 0.1 µM | CNC(=O)N1CCc2c(-c3cc(OC)c(CN4CC(CN5CC6(CCN(c7ccc8c(c7)C(=O)N(C7CCC(=O)NC7=O)C8=O)C6)C5)C4)c(OC)c3)cn(C)c(=O)c2C1 (stereo not drawn) [Compound D167]
< 0.01 µM | CNC(=O)N1CCc2c(-c3cc(OC)c(CN4CC(C(C)(C)N5CCC6(CC5)CN(c5ccc7c(c5)C(=O)N(C5CCC(=O)NC5=O)C7=O)C6)C4)c(OC)c3)cn(C)c(=O)c2C1 (stereo not drawn) [Compound D124]
< 0.01 µM | COc1cc(-c2cn(C)c(=O)c3c2CCN(C(=O)NCC2CC4(CCN(c5ccc6c(c5)C(=O)N(C5CCC(=O)NC5=O)C6=O)CC4)C2)C3)cc(OC)c1CN(C)C (stereo not drawn) [Compound D110]
< 0.01 µM | CNC(=O)N1CCc2c(-c3cc(OC)c(CN4CC(Oc5ccc6c(c5)C(=O)N(C5CCC(=O)NC5=O)C6=O)C4)c(OC)c3)cn(C)c(=O)c2C1 (stereo not drawn) [Compound D116]
< 0.01 µM | CNC(=S)N1CCc2c(-c3cc(OC)c(CN4CCC(CCN5CCN(c6ccc7c(c6)C(=O)N(C6CCC(=O)NC6=O)C7=O)CC5)CC4)c(OC)c3)cn(C)c(=O)c2C1 (stereo not drawn) [Compound D63]
0.01 to 0.1 µM | COc1cc(-c2cn(C)c(=O)c3c2CCN(C(=O)NCCCN2CC4(CCN(c5ccc6c(c5)C(=O)N(C5CCC(=O)NC5=O)C6=O)CC4)C2)C3)cc(OC)c1CN(C)C (stereo not drawn) [Compound D238]
0.01 to 0.1 µM | COc1cc(-c2cn(C)c(=O)c3c2CCN(C(=O)NCCCN2CCC4(CC2)CCN(c2ccc5c(c2)C(=O)N(C2CCC(=O)NC2=O)C5=O)C4)C3)cc(OC)c1CN(C)C (stereo not drawn) [Compound D236]
< 0.01 µM | CNC(=O)N1CCc2c(-c3cc(OC)c(CN4CCC(CN(C)C5CC(Oc6ccc7c(c6)C(=O)N(C6CCC(=O)NC6=O)C7=O)C5)CC4)c(OC)c3)cn(C)c(=O)c2C1 (stereo not drawn) [Compound D149]
< 0.01 µM | CNC(=O)N1CCc2c(-c3cc(OC)c(CN4CCN(CCC5CCN(c6ccc7c(c6)C(=O)N(C6CCC(=O)NC6=O)C7=O)CC5)CC4(C)C)c(OC)c3)cn(C)c(=O)c2C1 (stereo not drawn) [Compound D102]
0.1 to 1 µM | COc1cc(-c2cn(C)c(=O)c3c2CCN(C(=O)NC2CC4CC2CN4CCCOc2ccc4c(c2)C(=O)N(C2CCC(=O)NC2=O)C4=O)C3)cc(OC)c1CN(C)C (stereo not drawn) [Compound D270]
0.01 to 0.1 µM | COc1cc(-c2cn(C)c(=O)c3c2CCN(C(=O)NCCCN2CCC(OCC4CCN(c5ccc6c(c5)C(=O)N(C5CCC(=O)NC5=O)C6=O)CC4)C2)C3)cc(OC)c1CN(C)C (stereo not drawn) [Compound D229]
< 0.01 µM | CNC(=O)N1Cc2c(c(-c3cc(OC)c(CN4CCN(CCC5CCN(c6ccc7c(c6)C(=O)N(C6CCC(=O)NC6=O)C7=O)CC5)CC4)c(OC)c3)cn(C)c2=O)CC1C (stereo not drawn) [Compound D41]
0.01 to 0.1 µM | COc1cc(-c2cn(C)c(=O)c3c2CCN(C(=O)NCCCN2CCC4(C2)CN(c2ccc5c(c2)C(=O)N(C2CCC(=O)NC2=O)C5=O)C4)C3)cc(OC)c1CN(C)C (stereo not drawn) [Compound D207]
< 0.01 µM | COc1cc(-c2cn(C)c(=O)c3c2CCN(C(=O)NCCCN2CCC4(CC2)CN(c2ccc5c(c2)C(=O)N(C2CCC(=O)NC2=O)C5=O)C4)C3)cc(OC)c1CN(C)C (stereo not drawn) [Compound D246]
0.01 to 0.1 µM | COc1cc(-c2cn(C)c(=O)c3c2CCN(C(=O)NC2CC4(CCN(CCCCN5CCN(c6ccc7c(c6)C(=O)N(C6CCC(=O)NC6=O)C7=O)CC5)C4)C2)C3)cc(OC)c1CN(C)C (stereo not drawn) [Compound D226]

IC50 | Structure (SMILES)
< 0.01 µM | CNC(=O)N1CCc2c(-c3cc(OC)c(CN4CCOC(CCN5CCN(c6ccc7c(c6)C(=O)N(C6CCC(=O)NC6=O)C7=O)CC5)C4)c(OC)c3)cn(C)c(=O)c2C1 (stereo not drawn) [Compound D152]
≥ 1 µM | COc1cc(-c2cn(C)c(=O)c3c2CCN(C(=O)NC2CC4(CCN(CCCCN5CCN(c6ccc7c(c6)C(=O)N(C6CCC(=O)NC6=O)C7=O)CC5)CC4)CO2)C3)cc(OC)c1CN(C)C (stereo not drawn) [Compound D217]
0.1 to 1 µM | COc1cc(-c2cn(C)c(=O)c3c2CCN(C(=O)NCCN2CCC4CCN(c5ccc6c(c5)C(=O)N(C5CCC(=O)NC5=O)C6=O)C4C2)C3)cc(OC)c1CN(C)C (stereo not drawn) [Compound D188]
0.1 to 1 µM | CNC(=O)N1CCc2c(-c3cc(OC)c(CN4CCN(c5ccn6c(=O)n(C7CCC(=O)NC7=O)nc6c5)CC4)c(OC)c3)cn(C)c(=O)c2C1 (stereo not drawn) [Compound D61]
0.01 to 0.1 µM | CNC(=O)N1CCc2c(-c3cc(OC)c(CN4CC(S(=O)(=O)NCCCCOc5cccc6c5C(=O)N(C5CCC(=O)NC5=O)C6=O)C4)c(OC)c3)cn(C)c(=O)c2C1 (stereo not drawn) [Compound D281]
< 0.01 µM | CNC(=O)N1CCc2c(-c3cc(OC)c(CN4CCN(CCC5CCN(c6c(F)c(F)c7c(c6F)C(=O)N(c6ccc(F)cc6F)C7=O)CC5)CC4)c(OC)c3)cn(C)c(=O)c2C1 [DD1]
< 0.01 µM | CNC(=O)N1CCc2c(-c3cc(OC)c(CN4CCC(CCN5C(C)CN(c6ccc7c(c6)C(=O)N(C6CCC(=O)NC6=O)C7=O)CC5C)CC4)c(OC)c3)cn(C)c(=O)c2C1 (stereo not drawn) [Compound D145]
0.01 to 0.1 µM | CNC(=O)N1CCc2c(-c3cc(OC)c(CNc4ccc5c(c4)C(=O)N(C4CCC(=O)NC4=O)C5=O)c(OC)c3)cn(C)c(=O)c2C1 (stereo not drawn) [Compound D111]
< 0.01 µM | CNC(=O)N1CCc2c(-c3cc(OC)c(CN4CCC5(CC4)CC(N4Cc6cc7c(cc6C4)C(=O)N(C4CCC(=O)NC4=O)C7=O)C5)c(OC)c3)cn(C)c(=O)c2C1 (stereo not drawn) [Compound D182]
≥ 1 µM | CNC(=O)N1CCc2c(-c3cc(OC)c(CN4CC(CCCN5CCN(c6ccc7c(c6)C(=O)N(C6CCC(=O)NC6=O)C7=O)CC5)C4)c(OC)c3)cn(C)c(=O)c2C1 (stereo not drawn) [Compound D257]
< 0.01 µM | CNC(=O)N1CCc2c(-c3cc(OC)c(CN(C)C45CC(C(=O)NCCCCCOc6cccc7c6C(=O)N(C6CCC(=O)NC6=O)C7=O)(C4)C5)c(OC)c3)cn(C)c(=O)c2C1 (stereo not drawn) [Compound D283]
0.01 to 0.1 µM | COc1cc(-c2cn(C)c(=O)c3c2CCN(C(=O)NCCCN2CCC4C2CN4c2ccc4c(c2)C(=O)N(C2CCC(=O)NC2=O)C4=O)C3)cc(OC)c1CN(C)C (stereo not drawn) [Compound D260]
0.01 to 0.1 µM | CNC(=O)N1CCc2c(-c3cc(OC)c(CN4CCC(CCN5CCN(c6ccn7c(=O)n(C8CCC(=O)NC8=O)nc7c6)CC5)CC4)c(OC)c3)cn(C)c(=O)c2C1 (stereo not drawn) [Compound D77]
0.1 to 1 µM | COc1cc(-c2cn(C)c(=O)c3c2CCN(C(=O)NCCN2CCC4(C2)CN(c2ccc5c(c2)C(=O)N(C2CCC(=O)NC2=O)C5=O)C4)C3)cc(OC)c1CN(C)C (stereo not drawn) [Compound D189]
0.01 to 0.1 µM | CNC(=O)N1CCc2c(-c3cc(OC)c(CN4CCC5(CC4)CN(CCN4CCN(c6ccc7c(c6)C(=O)N(C6CCC(=O)NC6=O)C7=O)CC4)CCO5)c(OC)c3)cn(C)c(=O)c2C1 (stereo not drawn) [Compound D202]

Same assay, conditions: SYO-1 cells, 6 hours, Table 6A

IC50 | Structure (SMILES)
< 0.01 µM | COc1cc(-c2cn(C)c(=O)c3c2CCN(C(=O)NCCCCCCCCNc2ccc4c(c2)C(=O)N(C2CCC(=O)NC2=O)C4=O)C3)cc(OC)c1CN(C)C (stereo not drawn) [Compound D9, 5-(4-((dimethylamino)methyl)-3,5-dimethoxyphenyl)-N-(8-((2-(2,6-dioxopiperidin-3-yl)-1,3-dioxoisoindolin-5-yl)amino)octyl)-7-methyl-8-oxo-3,4,7,8-tetrahydro-2,7-naphthyridine-2 (1H)-carboxamide formic acid]
> 0.1 µM | COc1cc(-c2cn(C)c(=O)c3c2CCN(C(=O)NCCN(C)CCNC(=O)COc2cccc4c2C(=O)N(C2CCC(=O)NC2=O)C4=O)C3)cc(OC)c1CN(C)C (stereo not drawn) [Compound D8, N-(2-[[2-(5-[4-[(dimethylamino)methyl]-3,5-dimethoxyphenyl]-7-methyl-8-oxo-3,4-dihydro-1H-2,7-naphthyridine-2-carbonylamino)ethyl](methyl)amino]ethyl)-2-[[2-(2,6-dioxopiperidin-3-yl)-1,3-dioxoisoindol-4-yl]oxy]acetamide formic acid]
> 0.01 µM | COc1cc(-c2cn(C)c(=O)c3c2CCN(C(=O)NCCCCCNc2cccc4c2C(=O)N(C2CCC(=O)NC2=O)C4=O)C3)cc(OC)c1CN(C)C (stereo not drawn) [Compound D11, 5-(4-((dimethylamino)methyl)-3,5-dimethoxyphenyl)-N-(5-((2-(2,6-dioxopiperidin-3-yl)-1,3-dioxoisoindolin-4-yl)amino)pentyl)-7-methyl-8-oxo-3,4,7,8-tetrahydro-2,7-naphthyridine-2 (1H)-carboxamide formic acid]

Same assay, conditions: SYO-1 cells, 6 hours, Table 6C

IC50 | Structure (SMILES)
≥ 0.01 µM | CNC(=O)N1CCc2c(-c3cc(OC)c(C4CN(c5ccc6c(c5)CN(C5CCC(=O)NC5=O)C6=O)C4)c(OC)c3)cn(C)c(=O)c2C1 (stereo not drawn) [Compound D331]
< 0.01 µM | COc1cc(-c2cn(C)c(=O)c3c2CCC(=O)N3)cc(OC)c1CN1CCC(CN2CCC3(CC2)CC(Oc2ccc4c(c2)CN(C2CCC(=O)NC2=O)C4=O)C3)CC1 (stereo not drawn) [Compound D354]
< 0.01 µM | [2H]C([2H])([2H])NC(=O)N1CCc2c(-c3cc(OC)c(CN4[C@H](C)CN(CCC5CCN(c6ccc7c(c6)C(=O)N(C6CCC(=O)NC6=O)C7)CC5)C[C@H]4C)c(OC)c3)cn(C)c(=O)c2C1 (stereo partly drawn) [Compound D323]
< 0.01 µM | CNC(=O)N1CCc2c(-c3cc(OC)c(C4CN(c5ccc6c(c5)C(=O)N(C5CCC(=O)NC5=O)C6=O)C4)c(OC)c3)cn(C)c(=O)c2C1 (stereo not drawn) [Compound D303]
< 0.01 µM | CNC(=O)N1CCc2c(-c3cc(OC)c(CN4CCC5(CN(c6ccc7c(c6)C(=O)N(C6CCC(=O)NC6=O)C7)C5)C(F)(F)C4)c(OC)c3)cn(C)c(=O)c2C1 (stereo not drawn) [Compound D306]
< 0.01 µM | CNC(=O)N1CCc2c(-c3cc(OC)c(CN4CCN(CCC5CCN(c6ccc7c(c6)C(=O)N(C6CCC(=O)NC6=O)C7)CC5)CC45CC5)c(OC)c3)cn(C)c(=O)c2C1 (stereo not drawn) [Compound D314]
< 0.01 µM | CNC(=O)N1CCc2c(-c3cc(OC)c(CN4CCN(CCC5CCN(c6ccc7c(c6)C(=O)N(C6CCC(=O)NC6=O)C7)CC5)CC45CCC5)c(OC)c3)cn(C)c(=O)c2C1 (stereo not drawn) [Compound D332]
< 0.01 µM | COc1cc(-c2cn(C)c(=O)c3c2CCC3)cc(OC)c1CN1CCN(c2ccc3c(c2)C(=O)N(C2CCC(=O)NC2=O)C3=O)CC1 (stereo not drawn) [Compound D366]
